For eleven molecules, Ki results are on record in patent US10160762B2, “6-alkyl dihydropyrazolopyrimidinone compounds as PDE2 inhibitors” (Merck Sharp & Dohme Corp., priority 2015, dated 2018).

Molecules are shown by their SMILES.

The assay deals with T1, human PDE2A1 (Homo sapiens, UniProt O00408).
T1 construct: GST; purchased BPS Bioscience (San Diego, Calif.) 60020; host or cells: insect cells
In words: IMAP FP PDE assay, human PDE2A1. The assay is classed as biochemical. To be noted: Lab B; read-out: Human PDE2 Ki (nM) Lab B. The essentials:
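GST-tagged human PDE2A1 from insect cells; substrate 50 nM FAM-cAMP containing 1000 nM cGMP in Tris pH 7.2/MgCl2/DTT buffer, enzyme giving 20% conversion. 60 min at room temperature, IMAP binding reagent, fluorescence polarization read. Apparent Ki from FP readings using apparent KM 10,000 nM; ten-point 3-fold titrations.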

A word on the Ki: it is the dissociation constant of the complex between target and ligand, obtained from inhibition or displacement.

T1 sequence (O00408 1-920 isoform O00408-2): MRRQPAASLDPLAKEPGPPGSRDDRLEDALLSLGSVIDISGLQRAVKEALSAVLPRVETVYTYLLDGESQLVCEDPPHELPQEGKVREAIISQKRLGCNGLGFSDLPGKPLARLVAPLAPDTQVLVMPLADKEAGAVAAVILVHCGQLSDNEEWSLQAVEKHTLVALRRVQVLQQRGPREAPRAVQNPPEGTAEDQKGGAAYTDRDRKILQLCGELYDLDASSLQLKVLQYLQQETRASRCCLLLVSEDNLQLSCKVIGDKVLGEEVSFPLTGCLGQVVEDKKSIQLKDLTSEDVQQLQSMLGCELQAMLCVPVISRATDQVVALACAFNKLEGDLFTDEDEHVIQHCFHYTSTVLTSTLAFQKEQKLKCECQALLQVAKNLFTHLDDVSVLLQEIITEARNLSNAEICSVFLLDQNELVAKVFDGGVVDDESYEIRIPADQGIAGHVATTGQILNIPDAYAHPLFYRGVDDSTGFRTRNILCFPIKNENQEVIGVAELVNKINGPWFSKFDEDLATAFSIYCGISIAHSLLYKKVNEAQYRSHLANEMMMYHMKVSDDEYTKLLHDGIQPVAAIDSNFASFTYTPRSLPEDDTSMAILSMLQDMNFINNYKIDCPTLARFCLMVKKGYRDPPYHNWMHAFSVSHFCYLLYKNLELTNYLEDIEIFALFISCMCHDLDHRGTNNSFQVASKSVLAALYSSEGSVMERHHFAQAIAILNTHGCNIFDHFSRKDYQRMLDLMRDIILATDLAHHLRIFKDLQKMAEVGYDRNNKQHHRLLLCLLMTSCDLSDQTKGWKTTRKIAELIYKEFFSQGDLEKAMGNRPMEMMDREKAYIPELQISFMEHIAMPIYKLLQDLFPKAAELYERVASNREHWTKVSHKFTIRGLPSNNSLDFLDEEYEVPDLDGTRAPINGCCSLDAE

Turning to `Cc1nc2c(c(C(=O)NCC(F)(F)F)nn2C(C)c2ccc(C(F)(F)F)cc2)c(=O)[nH]1` (single isomer, unassigned) [Example 268, (R)- or (S)-6-Methyl-4-oxo-N-(2,2,2-trifluoroethyl)-1-(1-(4-(trifluoromethyl)phenyl)ethyl)-4,5-dihydro-1H-pyrazolo[3,4-d]pyrimidine-3-carboxamide], the Ki is 311 nM.
In the case of `Cc1nc2c(c(CO)nn2C(C)c2ccc3c(c2)OC(F)(F)O3)c(=O)[nH]1` (single isomer, unassigned) [Example 115, (S)- or (R)-1-(1-(2,2-Difluorobenzo[d][1,3]dioxol-5-yl)ethyl)-3-(hydroxymethyl)-6-methyl-1H-pyrazolo[3,4-d]pyrimidin-4(5H)-one] it was 7.2 nM; in that of `Cc1nc2c(c(CO)nn2C2CCc3cc(C(F)(F)F)ccc32)c(=O)[nH]1` (single isomer, unassigned) [Example 103, (S)- or (R)-3-(Hydroxymethyl)-6-methyl-1-(5-(trifluoromethyl)-2,3-dihydro-1H-inden-1-yl)-1H-pyrazolo[3,4-d]pyrimidin-4(5H)-one], 19 nM.
Take `Cc1nc2c(c(CO)nn2C(C)c2cnn(CC(F)(F)F)c2)c(=O)[nH]1` (single isomer, unassigned) [Example 149, (R)- or (S)-3-(Hydroxymethyl)-6-methyl-1-(1-(1-(2,2,2-trifluoroethyl)-1H-pyrazol-4-yl)ethyl)-1H-pyrazolo[3,4-d]pyrimidin-4(5H)-one]: the inhibitory constant (Ki) was more than 2960 nM.
In the case of `Cc1nc2c(c(CO)nn2C(C)c2ccc(C(F)(F)F)cc2C)c(=O)[nH]1` (single isomer, unassigned) [Example 109, (S)- or (R)-3-(Hydroxymethyl)-6-methyl-1-(1-(2-methyl-4-(trifluoromethyl)phenyl)ethyl)-1H-pyrazolo[3,4-d]pyrimidin-4(5H)-one], the inhibition constant (Ki) turned out to be 1.9 nM.
The same measure for `Cc1nc2c(c(-c3ccn[nH]3)nn2C(C)c2ccc(C(F)(F)F)cc2)c(=O)[nH]1` (single isomer, unassigned) [Example 236]: 76 nM; for `Cc1nc2c(c(CF)nn2C(C)c2ccc(CC(F)(F)F)cc2)c(=O)[nH]1` (single isomer, unassigned) [Example 210, (R)- or (S)-3-(Fluoromethyl)-6-methyl-1-(1-(4-(2,2,2-trifluoroethyl)phenyl)ethyl)-1H-pyrazolo[3,4-d]pyrimidin-4(5H)-one]: 75 nM.
As to `Cc1nc2c(c(CC(F)(F)F)nn2C(C)c2ccc(C(F)(F)F)cc2)c(=O)[nH]1` (single isomer, unassigned) [Example 65, (S)- or (R)-6-Methyl-3-(2,2,2-trifluoroethyl)-1-(1-(4-(trifluoromethyl)phenyl)ethyl)-1H-pyrazolo[3,4-d]pyrimidin-4(5H)-one], the Ki was found to be 5 nM.
The same measure for `Cc1nc2c(c(C3CCCO3)nn2C(C)c2ccc(C(F)(F)F)cc2)c(=O)[nH]1` (single isomer, unassigned) [Example 73, (S, S)- or (S, R)- or (R, R)- or (R, S)-6-Methyl-3-(-tetrahydrofuran-2-yl)-1-(-l-(4-(trifluoromethyl)phenyl)ethyl)-1H-pyrazolo[3,4-d]pyrimidin-4(5H)-one]: 423 nM; for `Cc1nc2c(c(CC(F)(F)F)nn2C(c2ccc(C(F)(F)F)c(F)c2)C2(C)CC2)c(=O)[nH]1` (single isomer, unassigned) [Example 63, (S)- or (R)-1-((3-Fluoro-4-(trifluoromethyl)phenyl)(1-methylcyclopropyl)methyl)-6-methyl-3-(2,2,2-trifluoroethyl)-1H-pyrazolo[3,4-d]pyrimidin-4(5H)-one]: 45 nM; for `Cc1nc2c(c(NS(C)(=O)=O)nn2C(C)c2ccc(C(F)(F)F)cc2)c(=O)[nH]1` (centres unmarked) [Example 261, N-(6-Methyl-4-oxo-1-(1 (4-(trifluoromethyl)phenyl)ethyl)-4,5-dihydro-1H-pyrazolo[3,4-d]pyrimidin-3-yl)methanesulfonamide]: approximately 1800 nM.
